Values belong to the molecule of their own block, whether it stands above or below them.
Tests used:
A549 cells = test: in vitro antiproliferation assay, A549 (lung); assay type: cell-based
Experimental: (§1) The IC50 values of various compounds against a various different tumor cell lines were determined using standard in vitro antiproliferation assays. The tumor cell lines tested were as follows: A549 (lung); H1299 (lung), ACHN (kidney/p53 wt), CAKI (renal cell carcinoma), NCI-H460 (lung); HCT116 (colon/p53w0; HELA (cervix/p53 wt), HUH7 (liver/p53 wt), HUVEC (primary endothelial), LNCAP (prostate), HT-29 (colon); MCF-7 (breast); MCF-7 (breast/ER positive), MDA MB435S (breast); MDA MB231 (breast/ER negative), DU145 (prostate); BxPC-3 (pancreatic); SKOV-3 (ovarian); HepG2 (hepatic), NDHF primary normal human dermal fibroblast), SKMEL28 (breast/p53mut), SKMEL5 (breast/p53 wt), U20S (bone) and PC3 (prostate). […] A blank indicates the specified compound was not tested against the specified cell line.

H1299 cells = test: in vitro antiproliferation assay, H1299 (lung); assay type: cell-based
Experimental: as §1

[1] = A549 (lung) cells, antiproliferation
[2] = H1299 (lung) cells, antiproliferation
[3] = A549 (lung) cells, in vitro antiproliferation
[4] = H1299 (lung) cells, in vitro antiproliferation
[5] = in vitro antiproliferation, A549 (lung) cells, Table 4, compounds with no designated stereochemistry tested as racemate
[6] = in vitro antiproliferation, H1299 (lung) cells, Table 4, compounds with no designated stereochemistry tested as racemate
[7] = Table 5, in vitro antiproliferation, A549 (lung) cells
[8] = Table 5, in vitro antiproliferation, H1299 (lung) cells
[9] = IC50 class against A549 (lung) tumor cells
[10] = IC50 class against H1299 (lung) tumor cells

Compound: COc1cc(C)c(Nc2ncc(F)c(Nc3ccc4c(c3)NC(=O)[C@@H](C)O4)n2)cc1Cl [compound 1139]
IC50 (A549 cells; Homo sapiens, A549 (lung) cells): ≤ 20 µM
IC50 (H1299 cells; Homo sapiens, NCI-H1299, H1299 (lung) cells): > 20 µM

Compound: Cc1cc(C)cc(Nc2nc(Nc3cc(Cl)c(Cl)c(Cl)c3)ncc2F)c1 [compound 899]
IC50 (A549 cells; [1]): ≤ 20 µM
IC50 (H1299 cells; [2]): ≤ 20 µM

Compound: Cc1cc(C)cc(Nc2nc(Nc3cc(C)c(Cl)c(Cl)c3)ncc2F)c1 [compound 896]
IC50 (A549 cells; [1]): ≤ 20 µM
IC50 (H1299 cells; [2]): ≤ 20 µM

Compound: CC(C)(C)c1ccc(Nc2ncc(F)c(Nc3ccc(C(C)(C)C)cc3)n2)cc1 [compound 718]
IC50 (A549 cells; [3]): > 20 µM
IC50 (H1299 cells; [4]): > 20 µM

Compound: COc1cc(N(C)c2nc(Nc3cc(C)cc(C)c3)ncc2F)ccc1Cl [compound 909]
IC50 (A549 cells; [1]): ≤ 20 µM
IC50 (H1299 cells; [2]): ≤ 20 µM

Compound: CN1CCN(c2ccc(Nc3ncc(F)c(NC4CCCCC4)n3)cc2Cl)CC1 [compound 153]
IC50 (A549 cells; [9]): ≤ 20 µM
IC50 (H1299 cells; [10]): ≤ 20 µM

Compound: COc1cc(Nc2ncc(F)c(Nc3cc(OC)cc(C(F)(F)F)c3)n2)cc(C(F)(F)F)c1 [compound 819]
IC50 (A549 cells; [3]): ≤ 20 µM
IC50 (H1299 cells; [4]): ≤ 20 µM

Compound: CNC(=O)COc1cccc(Nc2ncc(F)c(N(C)c3ccc(Cl)c(OC)c3)n2)c1 [compound 910]
IC50 (A549 cells; [1]): ≤ 20 µM
IC50 (H1299 cells; [2]): > 20 µM

Compound: C=CCNC(=O)COc1cccc(Nc2nc(Nc3cccc(OCC(=O)NC)c3)ncc2F)c1 [compound 791]
IC50 (A549 cells; [3]): ≤ 20 µM
IC50 (H1299 cells; [4]): ≤ 20 µM

Compound: COc1ccc(N(C)c2nc(Nc3cc(C)cc(C)c3)ncc2F)cc1OC [compound 864]
IC50 (A549 cells; [3]): ≤ 20 µM
IC50 (H1299 cells; [4]): ≤ 20 µM

Compound: CN1CCN(c2ccc(Nc3ncc(F)c(NC4CCC4)n3)cc2CO)CC1 [compound 174]
IC50 (A549 cells; [9]): ≤ 20 µM
IC50 (H1299 cells; [10]): ≤ 20 µM

Compound: COc1cc(Nc2nc(Nc3cc(CO)cc(CO)c3)ncc2F)cc(OC)c1 [compound 842]
IC50 (A549 cells; [3]): ≤ 20 µM
IC50 (H1299 cells; [4]): ≤ 20 µM

Compound: CCOC(=O)N1CCC(Nc2nc(Nc3ccc(N4CCN(C)CC4)c(C)c3)ncc2F)CC1 [compound 188]
IC50 (A549 cells; [9]): ≤ 20 µM
IC50 (H1299 cells; [10]): ≤ 20 µM

Compound: Cc1cc(C)cc(Nc2nc(Nc3cc(C)cc(C(F)(F)F)c3)ncc2F)c1 [compound 816]
IC50 (A549 cells; [3]): ≤ 20 µM
IC50 (H1299 cells; [4]): > 20 µM

Next, values leading:

IC50 (A549 cells; [1]): ≤ 20 µM
IC50 (H1299 cells; [2]): ≤ 20 µM
Compound: CNC(=O)c1ccc(Nc2ncc(F)c(Nc3ccc(OC)c(OC)c3)n2)cc1Cl [compound 871]

IC50 (A549 cells; [3]): ≤ 20 µM
IC50 (H1299 cells; [4]): ≤ 20 µM
Compound: COc1c(Cl)cc(Nc2ncc(F)c(Nc3ccc(Cl)c(Cl)c3)n2)cc1Cl [compound 834]

IC50 (A549 cells; A549 (lung) cells): ≤ 20 µM
IC50 (H1299 cells; H1299 (lung) cells): ≤ 20 µM
Compound: CCCCn1ncc2cc(Nc3ncc(F)c(Nc4ccc5c(c4)NC(=O)C(C)(C)O5)n3)ccc21 [compound 1084]

IC50 (A549 cells; [5]): ≤ 20 µM
IC50 (H1299 cells; [6]): ≤ 20 µM
Compound: O=C1COc2ccc(Nc3nc(Nc4cccc(-c5ncco5)c4)ncc3F)cc2N1 [compound 236]

IC50 (A549 cells; A549 (lung) cells): ≤ 20 µM
IC50 (H1299 cells; H1299 (lung) cells): ≤ 20 µM
Compound: CC(C)(CC1CC1)n1ncc2ccc(Nc3ncc(F)c(Nc4ccc(Cl)c(Cl)c4)n3)cc21 [compound 1111]

IC50 (A549 cells; [3]): > 20 µM
IC50 (H1299 cells; [4]): > 20 µM
Compound: Fc1ccc(Nc2ncc(F)c(Nc3ccc(F)c(Cl)c3)n2)cc1Cl [compound 719]

IC50 (A549 cells; [3]): ≤ 20 µM
IC50 (H1299 cells; [4]): > 20 µM
Compound: COc1c(Cl)cc(Nc2ncc(F)c(Nc3ccc(OC(F)(F)F)c(Cl)c3)n2)cc1Cl [compound 832]

IC50 (A549 cells; [3]): > 20 µM
IC50 (H1299 cells; [4]): > 20 µM
Compound: COc1ccc(Nc2nc(Nc3cc(C)c(OC)c(Cl)c3)ncc2F)cc1Cl [compound 802]

IC50 (A549 cells; [7]): ≤ 20 µM
IC50 (H1299 cells; [8]): ≤ 20 µM
Compound: COc1cc(Cl)cc(Nc2ncc(F)c(Nc3ccc4c(c3)OCCO4)n2)c1 [compound 539]

IC50 (A549 cells; A549 (lung) cells): ≤ 20 µM
IC50 (H1299 cells; H1299 (lung) cells): ≤ 20 µM
Compound: COc1cc(Nc2nc(Nc3ccc4cnn(C(C)(C)CC5CC5)c4c3)ncc2F)ccc1F [compound 1113]

IC50 (A549 cells; [1]): > 20 µM
IC50 (H1299 cells; [2]): > 20 µM
Compound: Cc1cc(C)cc(Nc2nc(Nc3cc(Cl)cc(Cl)c3)ncc2F)c1 [compound 898]

IC50 (A549 cells; [5]): ≤ 20 µM
IC50 (H1299 cells; [6]): ≤ 20 µM
Compound: O=C1Nc2cc(Nc3nc(Nc4cccc(-c5cnco5)c4)ncc3F)ccc2OC1CCO (racemic) [compound 238]

IC50 (A549 cells; [7]): ≤ 20 µM
IC50 (H1299 cells; [8]): ≤ 20 µM
Compound: Fc1cnc(Nc2cccc(Cl)c2)nc1Nc1ccc2c(c1)OC(F)(F)O2 [compound 513]

IC50 (A549 cells; [5]): ≤ 20 µM
IC50 (H1299 cells; [6]): ≤ 20 µM
Compound: COc1ccc(Nc2ncc(F)c(Nc3ccc4c(c3)NC(=O)C(C)(C)S4)n2)cc1F [compound 289]

IC50 (A549 cells; [1]): ≤ 20 µM
IC50 (H1299 cells; [2]): ≤ 20 µM
Compound: CC(=O)c1cc(Nc2ncc(F)c(Nc3cccc(O)c3)n2)cc(-c2ncco2)c1 [compound 888]

IC50 (A549 cells; [3]): > 20 µM
IC50 (H1299 cells; [4]): > 20 µM
Compound: Cc1cc(C)cc(Nc2ncc(F)c(Nc3cccc(OC(F)(F)F)c3)n2)c1 [compound 813]

IC50 (A549 cells; A549 (lung) cells): ≤ 20 µM
IC50 (H1299 cells; H1299 (lung) cells): ≤ 20 µM
Compound: CCCn1ncc2ccc(Nc3ncc(F)c(Nc4ccc5c(c4)NC(=O)C(C)(C)O5)n3)cc21 [compound 1080]

— US8809341B2, “2,4-pyrimidinediamine compounds and uses as anti-proliferative agents” (Rigel Pharmaceuticals, Inc., priority 2003, dated 2014)
